Target: glutaminyl cyclase (QC) (Homo sapiens (Human), UniProt Q16769)
Conditions: QC inhibition, 30° C.
Experimental: All measurements were performed with a BioAssay Reader HTS-7000Plus for microplates (Perkin Elmer) at 30° C. QC activity was evaluated fluorometrically using H-Gln-βNA. The samples consisted of 0.2 mM fluorogenic substrate, 0.25 U pyroglutamyl aminopeptidase (Unizyme, Hørsholm, Denmark) in 0.2 M Tris/HCl, pH 8.0 containing 20 mM EDTA and an appropriately diluted aliquot of QC in a final volume of 250 μl. Excitation/emission wavelengths were 320/410 nm. The assay reactions were initiated by addition of glutaminyl cyclase. QC activity was determined from a standard curve of β-naphthylamine under assay conditions. One unit is defined as the amount of QC catalyzing the formation of 1 μmol pGlu-βNA from H-Gln-βNA per minute under the described conditions.
In a second fluorometric assay, QC was activity determined using H-Gln-AMC as substrate. Reactions were carried out at 30° C. utilizing the NOVOStar reader for microplates (BMG labtechnologies). The samples consisted of varying concentrations of the fluorogenic substrate, 0.1 U pyroglutamyl aminopeptidase (Qiagen) in 0.05 M Tris/HCl, pH 8.0 containing 5 mM EDTA and an appropriately diluted aliquot of QC in a final volume of 250 μl. Excitation/emission wavelengths were 380/460 nm. The assay reactions were initiated by addition of glutaminyl cyclase. […] The kinetic data were evaluated using GraFit software.
Samples consisted of the respective QC substrate, 0.3 mM NADH, 14 mM α-Ketoglutaric acid and 30 U/ml glutamate dehydrogenase in a final volume of 250 μl. […] All samples were measured at 30° C., using either the [sequence]luor Plus or the Sunrise (both from TECAN) reader for microplates. Kinetic data was evaluated using GraFit software.
For inhibitor testing, the sample composition was the same as described above, except of the putative inhibitory compound added. For a rapid test of QC-inhibition, samples contained 4 mM of the respective inhibitor and a substrate concentration at 1 KM. For detailed investigations of the inhibition and determination of Ki-values, influence of the inhibitor on the auxiliary enzymes was investigated first. […] The inhibitory constant was evaluated by fitting the set of progress curves to the general equation for competitive inhibition using GraFit software.

Chain of glutaminyl cyclase (QC) (Q16769 29-361): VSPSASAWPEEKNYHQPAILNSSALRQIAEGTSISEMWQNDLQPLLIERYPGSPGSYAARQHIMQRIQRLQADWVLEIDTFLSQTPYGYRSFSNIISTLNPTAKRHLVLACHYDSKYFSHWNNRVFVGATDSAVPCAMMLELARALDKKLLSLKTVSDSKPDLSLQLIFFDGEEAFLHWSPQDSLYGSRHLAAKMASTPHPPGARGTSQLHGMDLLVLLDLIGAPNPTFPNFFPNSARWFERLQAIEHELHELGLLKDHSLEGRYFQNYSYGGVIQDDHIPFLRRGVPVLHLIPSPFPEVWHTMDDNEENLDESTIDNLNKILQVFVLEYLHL

Structure (SMILES)	IC50
CN(Cc1ccc(F)cc1)C(=S)Nc1ccc2[nH]cnc2c1 [Example 65, 1-(4-fluorobenzyl)-3-(1H-benzo[d]imidazol-5-yl)-1-methylthiourea]	404 µM
Fc1ccc(C2CCCN2C(=S)Nc2ccc3[nH]cnc3c2)cc1 (stereo not drawn) [Example 66, N-(1H-benzo[d]imidazol-5-yl)-2-(4-fluorophenyl)pyrrolidine-1-carbo-thioamide]	128 µM
S=C(Nc1ccc2[nH]cnc2c1)N1CCCC1 [Example 67, N-(1H-benzo[d]imidazol-5-yl)pyrrolidine-1-carbothioamide]	258 µM
S=C(Nc1ccc2[nH]cnc2c1)N1CCOCC1 [Example 68, N-(1H-benzo[d]imidazol-5-yl)morpholine-4-carbothioamide]	169 µM
S=C(Nc1ccc2[nH]cnc2c1)N1CCCCC1 [Example 69, N-(1H-benzo[d]imidazol-5-yl)piperidine-1-carbothioamide]	172 µM
Fc1ccc(N2CCN(C(=S)Nc3ccc4[nH]cnc4c3)CC2)cc1 [Example 70, N-(1H-benzo[d]imidazol-5-yl)-4-(4-fluorophenyl)piperazine-1-carbo-thioamide]	323 µM

— patent US9656991B2, “Inhibitors of glutaminyl cyclase” (PROBIODRUG AG, priority 2007, dated 2017)
